Measurements reported in patent publication US8906909B2 (Curis, Inc., priority 2009, dated 2014).

Columns and labels:
[1] = tested on: HDACs (HeLa cell nuclear extracts); test: HDAC enzymatic activity, Biomol Color de Lys system; format: biochemical
Experimental: (e) An In Vitro Assay which Determines the Ability of a Test Compound to Inhibit HDAC Enzymatic Activity.
HDAC inhibitory activity was assessed using the Biomol Color de Lys system (AK-500, Biomol, Plymouth Meeting, Pa.). Briefly, HeLa cell nuclear extracts were used as a source of HDACs. Different concentrations of test compounds were serially diluted in dimethylsulphoxide (DMSO) and added to HeLa cell nuclear extracts in the presence of a colorimetric artificial substrate. Final assay condition contained 50 mM Tris/Cl, pH 8.0, 137 mM NaCl, 2.7 mM KCl and 1 mM MgCl2. Reactions were carried in room temperature (25° C.) for 1 hour before addition of developer for termination. Relative enzyme activity was measured in the WALLAC Victor II 1420 microplate reader as floorescence intensity (excitation: 350-380 nm; emission: 440-460 nm). Data were analyzed using GraphPad Prism (v4.0a) with a sigmoidal dose response curve fitting for IC50 calculation.

melting point [°C]	IC50 [1] [nM]	Compound
179 to 182	< 100	CN(Cc1cc2nc(-c3cccc(N)c3)nc(N3CCOCC3)c2s1)c1ncc(C(=O)NO)cn1 [Compound 134, 2-(((2-(3-aminophenyl)-4-morpholinothieno[3,2-d]pyrimidin-6-yl)methyl)(methyl)amino)-N-hydroxypyrimidine-5-carboxamide]
174 to 175	100 to 1000	CN(Cc1cc2nc(-c3cccc4[nH]ncc34)nc(N3CCOCC3)c2s1)CC1CCN(c2ncc(C(=O)NO)cn2)CC1 [Compound 16, 2-(4-((((2-(1H-indazol-4-yl)-4-morpholinothieno[3,2-d]pyrimidin-6-yl)methyl)(methyl)amino)methyl)piperidin-1-yl)-N-hydroxypyrimidine-5-carboxamide]
140 to 142	100 to 1000	CS(=O)(=O)N1CCN(Cc2cc3nc(-c4ccc(OCCCCCC(=O)NO)cc4)nc(N4CCOCC4)c3s2)CC1 [Compound 320, N-Hydroxy-6-(4-(6-((4-(methylsulfonyl)piperazin-1-yl)methyl)-4-morpholinothieno[3,2-d]pyrimidin-2-yl)phenoxy)hexanamide]
131 to 134	100 to 1000	CS(=O)(=O)N1CCN(Cc2cc3nc(-c4cccc5[nH]ncc45)nc(N4CCN(CCCCCCC(=O)NO)CC4)c3s2)CC1 [Compound 32, 7-(4-(2-(1H-indazol-4-yl)-6-((4-(methylsulfonyl)piperazin-1-yl)methyl)thieno[3,2-d]pyrimidin-4-yl)piperazin-1-yl)-N-hydroxyheptanamide]
123 to 126	< 100	CS(=O)(=O)N1CCN(Cc2cc3nc(-c4cccc5nn(CCCCCCC(=O)NO)cc45)nc(N4CCOCC4)c3s2)CC1 [Compound 9, N-hydroxy-7-(4-(6-((4-(methylsulfonyl)piperazin-1-yl)methyl)-4-morpholinothieno[3,2-d]pyrimidin-2-yl)-2H-indazol-2-yl)heptanamide]
> 300	< 100	Nc1ncc(-c2nc(N3CCOCC3)c3sc(NS(=O)(=O)c4cccc(/C=C/C(=O)NO)c4)cc3n2)cn1 [Compound 218, (E)-3-(3-(N-(2-(2-aminopyrimidin-5-yl)-4-morpholinothieno[3,2-d]pyrimidin-6-yl)sulfamoyl)phenyl)-N-hydroxyacrylamide]
200 to 212	< 100	CN(Cc1cc2nc(-c3cccc4[nH]ccc34)nc(N3CCOCC3)c2s1)c1ncc(C(=O)NO)cn1 [Compound 176, 2-(((2-(1H-indol-4-yl)-4-morpholinothieno[3,2-d]pyrimidin-6-yl)methyl)(methyl)amino)-N-hydroxypyrimidine-5-carboxamide]
146 to 156	< 100	CN(Cc1cc2nc(-c3cccc4c3CCN4)nc(N3CCOCC3)c2s1)c1ncc(C(=O)NO)cn1 [Compound 177, N-hydroxy-2-(((2-(indolin-4-yl)-4-morpholinothieno[3,2-d]pyrimidin-6-yl)methyl)(methyl)amino)pyrimidine-5-carboxamide]
209 to 221	< 100	O=C(NO)c1cnc(N2CCN(Cc3cc4nc(-c5cccc6[nH]ncc56)nc(N5CCOCC5)c4s3)CC2)nc1 [Compound 14, 2-(4-((2-(1H-indazol-4-yl)-4-morpholinothieno[3,2-d]pyrimidin-6-yl)methyl)piperazin-1-yl)-N-hydroxypyrimidine-5-carboxamide]
179 to 181	< 100	COc1cccc(-c2nc(N3CCOCC3)c3sc(CN(C)c4ncc(C(=O)NO)cn4)cc3n2)c1 [Compound 130, N-hydroxy-2-(((2-(3-methoxyphenyl)-4-morpholinothieno[3,2-d]pyrimidin-6-yl)methyl)(methyl)amino)pyrimidine-5-carboxamide]
235 to 240	< 100	Nc1ncc(-c2nc(N3CCOCC3)c3sc(NCCCCCCC(=O)NO)cc3n2)cn1 [Compound 234, 7-[2-(2-Amino-pyrimidin-5-yl)-4-morpholin-4-yl-thieno[3,2-d]pyrimidin-6-ylamino]-heptanoic acid hydroxyamide]
224 to 226	< 100	CCCN(Cc1cc2nc(-c3cccc4[nH]ncc34)nc(N3CCOCC3)c2s1)c1ncc(C(=O)NO)cn1 [Compound 84, 2-(((2-(1H-indazol-4-yl)-4-morpholinothieno[3,2-d]pyrimidin-6-yl)methyl)(propyl)amino)-N-hydroxypyrimidine-5-carboxamide]
190 to 197	< 100	CNc1ccc(-c2nc(N3CCOCC3)c3sc(S(=O)(=O)NCC4CCN(c5ncc(C(=O)NO)cn5)CC4)cc3n2)cn1 [Compound 310, N-Hydroxy-2-(4-((2-(6-(methylamino)pyridin-3-yl)-4-morpholinothieno[3,2-d]pyrimidine-6-sulfonamido)methyl)piperidin-1-yl)pyrimidine-5-carboxamide]
> 300	< 100	CN(Cc1cc2nc(-c3cnc(CN)nc3)nc(N3CCOCC3)c2s1)c1ncc(C(=O)NO)cn1 [Compound 124, 2-(((2-(2-(aminomethyl)pyrimidin-5-yl)-4-morpholinothieno[3,2-d]pyrimidin-6-yl)methyl)(methyl)amino)-N-hydroxypyrimidine-5-carboxamide]

Second part, the molecule before the results:

Compound	melting point [°C]	IC50 [1] [nM]
COc1ncc(-c2nc(N3CCOCC3)c3sc(C(C)N(C)c4ncc(C(=O)NO)cn4)cc3n2)cn1 (stereo not shown) [Compound 262, N-Hydroxy-2-((1-(2-(2-methoxypyrimidin-5-yl)-4-morpholinothieno[3,2-d]pyrimidin-6-yl)ethyl)(methyl)amino)pyrimidine-5-carboxamide]	210 to 215	< 100
CN(Cc1cc2nc(-c3ccc(O)cc3)nc(N3CCOCC3)c2s1)c1ncc(C(=O)NO)cn1 [Compound 133, N-hydroxy-2-(((2-(4-hydroxyphenyl)-4-morpholinothieno[3,2-d]pyrimidin-6-yl)methyl)(methyl)amino)pyrimidine-5-carboxamide]	185 to 195	< 100
O=C(CCCCCNCc1cc2nc(-c3cccc4[nH]ncc34)nc(N3CCOCC3)c2s1)NO [Compound 43, 6-((2-(1H-indazol-4-yl)-4-morpholinothieno[3,2-d]pyrimidin-6-yl)methylamino)-N-hydroxyhexanamide]	128 to 130	< 100
CN(Cc1cc2nc(-c3cnn(C)c3)nc(N3CCOCC3)c2s1)c1ncc(C(=O)NO)cn1 [Compound 246, N-Hydroxy-2-(methyl((2-(1-methyl-1H-pyrazol-4-yl)-4-morpholinothieno[3,2-d]pyrimidin-6-yl)methyl)amino)pyrimidine-5-carboxamide]	164 to 169	< 100
Nc1ccc(-c2nc(N3CCOCC3)c3sc(S(=O)(=O)Nc4ncc(C(=O)NO)cn4)cc3n2)cc1 [Compound 271, 2-[2-(4-Amino-phenyl)-4-morpholin-4-yl-thieno[3,2-d]pyrimidine-6-sulfonylamino]-pyrimidine-5-carboxylic acid hydroxyamide]	197 to 205	< 100
CN(Cc1cc2nc(-c3ccc(C(F)(F)F)cc3)nc(N3CCOCC3)c2s1)c1ncc(C(=O)NO)cn1 [Compound 202, N-hydroxy-2-(methyl((4-morpholino-2-(4-(trifluoromethyl)phenyl)thieno[3,2-d]pyrimidin-6-yl)methyl)amino)pyrimidine-5-carboxamide]	222 to 223	< 100
CC(=O)Nc1cccc(-c2nc(N3CCOCC3)c3sc(CN(C)c4ncc(C(=O)NO)cn4)cc3n2)c1 [Compound 107, 2-(((2-(3-acetamidophenyl)-4-morpholinothieno[3,2-d]pyrimidin-6-yl)methyl)(methyl)amino)-N-hydroxypyrimidine-5-carboxamide]	183 to 185	< 100
COc1ccc(-c2nc(N3CCOCC3)c3sc(NS(=O)(=O)c4cccc(/C=C/C(=O)NO)c4)cc3n2)cn1 [Compound 221, (E)-N-hydroxy-3-(3-(N-(2-(6-methoxypyridin-3-yl)-4-morpholinothieno[3,2-d]pyrimidin-6-yl)sulfamoyl)phenyl)acrylamide]	> 300	< 100
CCN(CC)c1ccc(-c2nc(N3CCOCC3)c3sc(CN(C)c4ncc(C(=O)NO)cn4)cc3n2)cc1 [Compound 154, 2-(((2-(4-(Diethylamino)phenyl)-4-morpholinothieno[3,2-d]pyrimidin-6-yl)methyl)(methyl)amino)-N-hydroxypyrimidine-5-carboxamide]	192 to 196	< 100
CN(Cc1cc2nc(-c3ccc(N)c(Cl)c3)nc(N3CCOCC3)c2s1)c1ncc(C(=O)NO)cn1 [Compound 275, 2-(((2-(4-Amino-3-chlorophenyl)-4-morpholinothieno[3,2-d]pyrimidin-6-yl)methyl)(methyl)amino)-N-hydroxypyrimidine-5-carboxamide]	241 to 246	< 100
CS(=O)(=O)N1CCN(Cc2cc3nc(-c4ccc(OCCCCC(=O)NO)cc4)nc(N4CCOCC4)c3s2)CC1 [Compound 319, N-Hydroxy-5-(4-(6-((4-(methylsulfonyl)piperazin-1-yl)methyl)-4-morpholinothieno[3,2-d]pyrimidin-2-yl)phenoxy)pentanamide]	140 to 144	100 to 1000
O=C(CCCCNCc1cc2nc(-c3cccc4[nH]ncc34)nc(N3CCOCC3)c2s1)NO [Compound 42, 5-((2-(1H-indazol-4-yl)-4-morpholinothieno[3,2-d]pyrimidin-6-yl)methylamino)-N-hydroxypentanamide]	145 to 147	< 100
